These results are taken from ChEMBL document CHEMBL1131484, “Human growth hormone-releasing hormone hGHRH(1-29)-NH2: systematic structure-activity relationship studies” (J Med Chem, 1998).

Square brackets hold non-standard residues; d marks the D form. Peptide text beside a SMILES is read from it. αMeY = C[C@](N)(Cc1ccc(O)cc1)C(=O)O

The assay deals with T1, Growth hormone-releasing hormone receptor (Rattus norvegicus) (UniProt Q02644).
T1 sequence (whole entry): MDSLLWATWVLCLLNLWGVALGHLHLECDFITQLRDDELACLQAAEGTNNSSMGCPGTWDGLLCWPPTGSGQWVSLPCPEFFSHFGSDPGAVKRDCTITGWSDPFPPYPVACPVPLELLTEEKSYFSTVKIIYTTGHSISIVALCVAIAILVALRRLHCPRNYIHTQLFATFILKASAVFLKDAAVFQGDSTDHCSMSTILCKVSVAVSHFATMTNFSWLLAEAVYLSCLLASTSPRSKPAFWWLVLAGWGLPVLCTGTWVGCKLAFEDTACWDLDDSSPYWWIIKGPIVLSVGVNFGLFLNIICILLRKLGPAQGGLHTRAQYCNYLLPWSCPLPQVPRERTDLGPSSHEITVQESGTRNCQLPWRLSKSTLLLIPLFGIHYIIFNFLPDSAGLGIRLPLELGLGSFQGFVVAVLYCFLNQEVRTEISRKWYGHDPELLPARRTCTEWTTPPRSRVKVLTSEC
The experiment in a line: Potency for growth hormone releasing hormone receptor (GHRFR) relative to human GHRH(1-40)OH- in the rat pituitary cell culture assay. The conditions noted are these: Pituitary gland cell. The class given is functional, cell-based.
`CC[C@H](C)[C@H](NC(=O)[C@H](C)NC(=O)[C@H](CC(=O)O)NC(=O)[C@H](C)NC(=O)[C@@](C)(N)Cc1ccc(O)cc1)C(=O)N[C@@H](Cc1ccccc1)C(=O)N[C@H](C(=O)N[C@@H](CC(N)=O)C(=O)N[C@@H](CO)C(=O)N[C@@H](Cc1ccc(O)cc1)C(=O)N[C@@H](CCCN=C(N)N)C(=O)N[C@@H](CCCCN)C(=O)N[C@H](C(=O)N[C@@H](CC(C)C)C(=O)N[C@@H](C)C(=O)N[C@@H](CCC(N)=O)C(=O)N[C@@H](CC(C)C)C(=O)N[C@@H](CO)C(=O)N[C@@H](C)C(=O)N[C@@H](CCCN=C(N)N)C(=O)N[C@@H](CCCCN)C(=O)N[C@@H](C)C(=O)N[C@@H](CC(C)C)C(=O)N[C@@H](CCC(N)=O)C(=O)N[C@@H](CC(=O)O)C(=O)N[C@H](C(=O)N[C@@H](CCSC)C(=O)N[C@@H](CO)C(=O)N[C@@H](CCCN=C(N)N)C(N)=O)[C@@H](C)CC)C(C)C)[C@@H](C)O` (H-[αMeY]ADAIFTNSYRKVLAQLSARKALQDIMSR-NH2) came in with a Relative potency of 25.6.

Consider H-YADAIFTNSYRKVLGQLSARALLQDIMSR-NH2, for which the Relative potency was found to be 0.27.

For the molecule `CCCC[C@H]1NC(=O)[C@H]([C@@H](C)CC)NC(=O)[C@H](NC(=O)[C@H](Cc2c[nH]cn2)NC(=O)[C@H](CC(C)C)NC(=O)[C@H](CC(C)C)NC(=O)[C@H](CCCCN)NC(=O)[C@H](CCCN=C(N)N)NC(=O)[C@H](Cc2ccccc2)NC(=O)[C@@H](NC(=O)[C@H](CC(C)C)NC(=O)[C@H](CCC(N)=O)NC(=O)[C@H](C)NC(=O)[C@H](CC(C)C)NC(=O)[C@@H](NC(=O)[C@H](CCCN=C(N)N)NC(=O)[C@H](CCCN=C(N)N)NC(=O)[C@H](Cc2ccc(O)cc2)NC(=O)[C@H](CO)NC(=O)[C@H](CO)NC(=O)[C@@H](NC(=O)[C@H](Cc2ccccc2)NC(=O)[C@@H](NC(=O)[C@H](C)NC(=O)[C@H](CC(=O)O)NC(=O)[C@H](C)NC(=O)[C@@](C)(N)Cc2c[nH]cn2)[C@@H](C)CC)[C@@H](C)O)[C@@H](C)CC)[C@@H](C)CC)CSSC[C@H](C(N)=O)NC(=O)[C@H](CC(N)=O)NC1=O`, the Relative potency came to 1.5.

The molecule `CC[C@H](C)[C@H](NC(=O)[C@H](C)NC(=O)[C@H](CC(=O)O)NC(=O)[C@H](C)NC(=O)[C@@H](N)Cc1ccc(O)cc1)C(=O)N[C@@H](Cc1ccccc1)C(=O)N[C@H](C(=O)N[C@@H](CC(N)=O)C(=O)N[C@@H](CO)C(=O)N[C@@H](Cc1ccc(O)cc1)C(=O)N[C@@H](CCCN=C(N)N)C(=O)N[C@H]1CCC(=O)NCCCC[C@H](C(=O)N[C@H](CCC(N)=O)C(=O)N[C@H](CC(C)C)C(=O)N[C@H](CO)C(=O)N[C@H](C)C(=O)N[C@@H](CCCN=C(N)N)C(=O)N[C@@H](CCCCN)C(=O)N[C@@H](CC(C)C)C(=O)N[C@@H](CC(C)C)C(=O)N[C@@H](CCC(N)=O)C(=O)N[C@@H](CC(=O)O)C(=O)N[C@H](C(=O)N[C@@H](CCSC)C(=O)N[C@@H](CO)C(=O)N[C@@H](CCCN=C(N)N)C(N)=O)[C@@H](C)CC)NC(=O)[C@@H](CC(C)C)NC(=O)[C@H](C(C)C)NC1=O)[C@@H](C)O` returned a Relative potency of 1.2.

The molecule H-YADAIFTNSYRKVLGQLSARKLLQDIASR-NH2 displayed a Relative potency of 0.32.

As for `CCCC[C@H](NC(=O)[C@@H](NC(=O)[C@H](CC(=O)O)NC(=O)[C@H](CCC(N)=O)NC(=O)[C@H](CC(C)C)NC(=O)[C@H](CC(C)C)NC(=O)[C@H](CCCCN)NC(=O)[C@H](CCCN=C(N)N)NC(=O)[C@H](C)NC(=O)[C@H](CO)NC(=O)[C@H](CC(C)C)NC(=O)[C@H](CCC(N)=O)NC(=O)CNC(=O)[C@H](CC(C)C)NC(=O)[C@@H](NC(=O)[C@H](CCCCN)NC(=O)[C@H](CCCN=C(N)N)NC(=O)[C@H](Cc1ccc(O)cc1)NC(=O)[C@H](CO)NC(=O)[C@H](CC(N)=O)NC(=O)[C@@H](NC(=O)[C@H](Cc1ccccc1)NC(=O)[C@@H](NC(=O)[C@H](C)NC(=O)[C@H](CC(=O)O)NC(=O)[C@H](C)NC(=O)[C@@H](N)Cc1ccc(O)cc1)[C@@H](C)CC)[C@@H](C)O)C(C)C)[C@@H](C)CC)C(=O)N[C@@H](CO)C(=O)N[C@@H](CCCN=C(N)N)C(N)=O`, the Relative potency turned out to be 2.38.

Molecule `CC[C@H](C)[C@H](NC(=O)[C@H](C)NC(=O)[C@H](CC(=O)O)NC(=O)[C@H](C)NC(=O)[C@@H](N)Cc1ccc(O)cc1)C(=O)N[C@@H](Cc1ccccc1)C(=O)N[C@H](C(=O)N[C@@H](CC(N)=O)C(=O)N[C@@H](CO)C(=O)N[C@@H](Cc1ccc(O)cc1)C(=O)N[C@@H](CCCN=C(N)N)C(=O)N[C@@H](CCCCN)C(=O)N[C@H](C(=O)N[C@@H](CC(C)C)C(=O)NCC(=O)N[C@@H](CCC(N)=O)C(=O)N[C@@H](CC(C)C)C(=O)N[C@@H](CO)C(=O)N[C@@H](C)C(=O)N[C@@H](CCCN=C(N)N)C(=O)N[C@@H](CCCCN)C(=O)N[C@@H](CC(C)C)C(=O)N[C@@H](CC(C)C)C(=O)N[C@@H](CCC(N)=O)C(=O)N[C@@H](CC(=O)O)C(=O)N[C@H](C(=O)N[C@@H](CCSC)C(=O)N[C@@H](C)C(=O)N[C@@H](CCCN=C(N)N)C(N)=O)[C@@H](C)CC)C(C)C)[C@@H](C)O` (stereo in doubt; 27) displayed a Relative potency of 1.9.

In the case of `CC[C@H](C)[C@H](NC(=O)[C@H](C)NC(=O)[C@H](CC(=O)O)NC(=O)[C@H](C)NC(=O)[C@@H](N)Cc1ccc(O)cc1)C(=O)N[C@@H](Cc1ccccc1)C(=O)N[C@H](C(=O)N[C@@H](CC(N)=O)C(=O)N[C@@H](CO)C(=O)N[C@@H](Cc1ccc(O)cc1)C(=O)N[C@@H](CCCN=C(N)N)C(=O)N[C@@H](CCCCN)C(=O)N[C@H](C(=O)N[C@@H](CC(C)C)C(=O)NCC(=O)N[C@@H](CCC(N)=O)C(=O)N[C@@H](CC(C)C)C(=O)N[C@@H]1CCC(=O)NCCCC[C@@H](C(=O)N[C@@H](CC(C)C)C(=O)N[C@@H](CC(C)C)C(=O)N[C@@H](CCC(N)=O)C(=O)N[C@@H](CC(=O)O)C(=O)N[C@H](C(=O)N[C@@H](CCSC)C(=O)N[C@@H](CO)C(=O)N[C@@H](CCCN=C(N)N)C(N)=O)[C@@H](C)CC)NC(=O)[C@H](CCCN=C(N)N)NC(=O)[C@@H](C)NC1=O)C(C)C)[C@@H](C)O`, the Relative potency amounted to 1.8.

For the molecule `CCCC[C@H]1NC(=O)[C@H]([C@@H](C)CC)NC(=O)[C@H](NC(=O)[C@H](CCC(N)=O)NC(=O)[C@H](CC(C)C)NC(=O)[C@H](CC(C)C)NC(=O)[C@H](CCCCN)NC(=O)[C@H](CCCN=C(N)N)NC(=O)[C@H](C)NC(=O)[C@H](CO)NC(=O)[C@H](CC(C)C)NC(=O)[C@H](CCC(N)=O)NC(=O)[C@H](C)NC(=O)[C@H](CC(C)C)NC(=O)[C@@H](NC(=O)[C@H](CCCCN)NC(=O)[C@H](CCCN=C(N)N)NC(=O)[C@H](Cc2ccc(O)cc2)NC(=O)[C@H](CO)NC(=O)[C@H](CC(N)=O)NC(=O)[C@@H](NC(=O)[C@H](Cc2ccccc2)NC(=O)[C@@H](NC(=O)[C@H](C)NC(=O)[C@H](CC(=O)O)NC(=O)[C@H](C)NC(=O)[C@@](C)(N)Cc2ccc(O)cc2)[C@@H](C)CC)[C@@H](C)O)C(C)C)CCC(=O)NCC[C@H](C(N)=O)NC(=O)[C@H](CO)NC1=O`, the Relative potency was determined as 10.7.

Regarding H-YADAIFTNSYAKVLGQLSARKLLQDIMSR-NH2, the Relative potency was found to be 0.01.

As to H-YADAIATNSYRKVLGQLSARKLLQDIMSR-NH2, the Relative potency is 0.

H-YADAIFTNSYRKVLAQLSARKLLQDIMSR-NH2 displayed a Relative potency of 5.6.

H-YADAIFTNSYRKALGQLSARKLLQDIMSR-NH2 had a Relative potency of 0.06.

Consider H-YADAIFTNSYRKVLGQLSARKLAQDIMSR-NH2, for which the Relative potency was 0.07.

H-YADAIFTNAYRKVLGQLSARKLLQDIMSR-NH2 came in with a Relative potency of 2.6.

As to `CCCC[C@H]1NC(=O)[C@H]([C@@H](C)CC)NC(=O)[C@@H](NC(=O)[C@H](Cc2c[nH]cn2)NC(=O)[C@H](CC(C)C)NC(=O)[C@H](CC(C)C)NC(=O)[C@H](CCCCN)NC(=O)[C@H](CCCN=C(N)N)NC(=O)[C@H](Cc2ccccc2)NC(=O)[C@@H](NC(=O)[C@H](CC(C)C)NC(=O)[C@H](CCC(N)=O)NC(=O)[C@H](C)NC(=O)[C@H](CC(C)C)NC(=O)[C@@H](NC(=O)[C@H](CCCN=C(N)N)NC(=O)[C@H](CCCN=C(N)N)NC(=O)[C@H](Cc2ccc(O)cc2)NC(=O)[C@H](CO)NC(=O)[C@H](CO)NC(=O)[C@@H](NC(=O)[C@H](Cc2ccccc2)NC(=O)[C@@H](NC(=O)[C@H](C)NC(=O)[C@H](CC(=O)O)NC(=O)[C@H](C)NC(=O)[C@@](C)(N)Cc2c[nH]cn2)[C@@H](C)CC)[C@@H](C)O)[C@@H](C)CC)[C@@H](C)CC)CSSC[C@@H](C(N)=O)NC(=O)[C@H](CC(N)=O)NC1=O`, the Relative potency stood at 1.1.

Molecule `CC[C@H](C)[C@H](NC(=O)[C@H](C)NC(=O)[C@H](CC(=O)O)NC(=O)[C@H](C)NC(=O)[C@@](C)(N)Cc1ccc(O)cc1)C(=O)N[C@@H](Cc1ccccc1)C(=O)N[C@H](C(=O)N[C@@H](C)C(=O)N[C@@H](C)C(=O)N[C@@H](Cc1ccc(O)cc1)C(=O)N[C@@H](CCCN=C(N)N)C(=O)N[C@@H](CCCCN)C(=O)N[C@H](C(=O)N[C@@H](CC(C)C)C(=O)N[C@@H](C)C(=O)N[C@@H](CCC(N)=O)C(=O)N[C@@H](CC(C)C)C(=O)N[C@@H](CO)C(=O)N[C@@H](C)C(=O)N[C@@H](CCCN=C(N)N)C(=O)N[C@@H](CCCCN)C(=O)N[C@@H](C)C(=O)N[C@@H](CC(C)C)C(=O)N[C@@H](CCC(N)=O)C(=O)N[C@@H](CC(=O)O)C(=O)N[C@H](C(=O)N[C@@H](CCSC)C(=O)N[C@@H](C)C(=O)N[C@@H](CCCN=C(N)N)C(N)=O)[C@@H](C)CC)C(C)C)[C@@H](C)O` (H-[αMeY]ADAIFTAAYRKVLAQLSARKALQDIMAR-NH2) yielded a Relative potency of 11.2.
